Experimental data reported in patent publication US10800791B2, “Triazole ACC inhibitors and uses thereof” (Gilead Apollo, LLC, priority 2015, dated 2020).
Values after ≈ are worked out from the molar mass of the structure shown. Read-outs that look alike come from different tables or passages of the source.

Experiments:
[1] = molecular target: human (hACC2) (Homo sapiens, UniProt O00763); experiment: In vitro ACC inhibition assay (ADP-Glo), hACC2; type: biochemical; conditions: 5 nM ACC2, 20 μM ATP, 20 μM acetyl-CoA
Chain of human (hACC2) (O00763 whole entry): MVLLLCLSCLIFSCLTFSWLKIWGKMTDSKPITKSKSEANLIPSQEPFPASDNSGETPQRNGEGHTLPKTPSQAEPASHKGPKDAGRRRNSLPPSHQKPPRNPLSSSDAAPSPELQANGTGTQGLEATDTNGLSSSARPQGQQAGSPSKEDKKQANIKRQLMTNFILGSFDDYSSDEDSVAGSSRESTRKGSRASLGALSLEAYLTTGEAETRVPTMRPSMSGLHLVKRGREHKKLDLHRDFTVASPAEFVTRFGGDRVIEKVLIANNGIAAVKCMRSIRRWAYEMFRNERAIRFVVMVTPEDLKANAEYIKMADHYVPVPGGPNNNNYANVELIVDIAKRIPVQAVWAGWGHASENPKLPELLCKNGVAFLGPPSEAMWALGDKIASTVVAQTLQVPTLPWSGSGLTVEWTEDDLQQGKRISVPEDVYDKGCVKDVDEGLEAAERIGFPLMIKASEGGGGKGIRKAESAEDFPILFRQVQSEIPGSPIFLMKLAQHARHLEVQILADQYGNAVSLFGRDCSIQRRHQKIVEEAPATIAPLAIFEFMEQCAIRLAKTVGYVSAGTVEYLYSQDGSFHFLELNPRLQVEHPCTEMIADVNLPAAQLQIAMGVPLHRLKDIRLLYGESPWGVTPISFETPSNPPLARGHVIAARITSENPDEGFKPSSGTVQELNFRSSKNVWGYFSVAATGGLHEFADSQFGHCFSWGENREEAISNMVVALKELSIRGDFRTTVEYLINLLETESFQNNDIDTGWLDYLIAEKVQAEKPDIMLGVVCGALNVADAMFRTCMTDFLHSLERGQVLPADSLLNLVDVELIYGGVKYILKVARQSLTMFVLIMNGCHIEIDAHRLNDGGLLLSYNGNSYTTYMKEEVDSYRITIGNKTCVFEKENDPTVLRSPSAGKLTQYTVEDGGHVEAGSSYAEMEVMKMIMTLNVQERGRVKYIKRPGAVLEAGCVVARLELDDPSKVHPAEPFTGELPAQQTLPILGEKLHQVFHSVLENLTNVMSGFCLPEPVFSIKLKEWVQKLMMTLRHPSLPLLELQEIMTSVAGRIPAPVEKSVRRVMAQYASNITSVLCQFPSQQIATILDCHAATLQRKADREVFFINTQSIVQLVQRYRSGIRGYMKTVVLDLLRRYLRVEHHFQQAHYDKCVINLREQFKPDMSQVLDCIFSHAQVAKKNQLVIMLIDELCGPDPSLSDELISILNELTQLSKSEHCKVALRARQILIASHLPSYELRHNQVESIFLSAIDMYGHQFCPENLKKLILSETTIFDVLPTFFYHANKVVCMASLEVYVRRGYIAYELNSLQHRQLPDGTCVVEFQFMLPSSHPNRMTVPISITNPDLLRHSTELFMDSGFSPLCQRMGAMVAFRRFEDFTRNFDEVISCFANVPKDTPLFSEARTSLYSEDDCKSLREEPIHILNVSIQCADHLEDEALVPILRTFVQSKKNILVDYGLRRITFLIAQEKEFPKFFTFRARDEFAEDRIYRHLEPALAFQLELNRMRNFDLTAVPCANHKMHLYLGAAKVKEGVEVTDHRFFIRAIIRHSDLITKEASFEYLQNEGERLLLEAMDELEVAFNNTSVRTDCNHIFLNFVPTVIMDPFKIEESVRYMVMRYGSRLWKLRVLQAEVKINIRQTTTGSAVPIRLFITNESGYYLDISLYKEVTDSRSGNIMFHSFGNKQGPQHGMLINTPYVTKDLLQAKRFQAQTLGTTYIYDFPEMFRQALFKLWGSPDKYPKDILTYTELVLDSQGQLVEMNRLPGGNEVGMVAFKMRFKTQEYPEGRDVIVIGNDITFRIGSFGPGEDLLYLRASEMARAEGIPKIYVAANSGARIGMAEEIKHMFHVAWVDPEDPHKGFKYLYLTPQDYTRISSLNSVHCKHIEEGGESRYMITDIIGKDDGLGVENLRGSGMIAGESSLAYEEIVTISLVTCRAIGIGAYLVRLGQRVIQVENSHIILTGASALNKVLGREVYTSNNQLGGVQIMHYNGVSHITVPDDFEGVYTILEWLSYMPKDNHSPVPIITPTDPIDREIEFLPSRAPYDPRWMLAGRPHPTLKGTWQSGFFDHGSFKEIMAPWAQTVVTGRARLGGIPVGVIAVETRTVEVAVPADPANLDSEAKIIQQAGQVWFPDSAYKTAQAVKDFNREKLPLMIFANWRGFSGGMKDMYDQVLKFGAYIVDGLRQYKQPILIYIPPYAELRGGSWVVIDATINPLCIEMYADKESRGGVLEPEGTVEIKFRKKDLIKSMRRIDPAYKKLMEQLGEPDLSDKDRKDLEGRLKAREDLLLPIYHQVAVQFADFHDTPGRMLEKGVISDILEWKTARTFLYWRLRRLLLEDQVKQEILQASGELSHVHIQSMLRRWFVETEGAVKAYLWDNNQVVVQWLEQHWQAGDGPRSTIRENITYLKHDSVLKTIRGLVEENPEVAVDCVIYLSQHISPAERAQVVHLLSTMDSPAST
Procedure: The detailed procedure is as follows. […] 10 μL ADP glo reagent was added. […] 20 μL kinase detection reagent was added.

[2] = test system: C. albicans; experiment: Antifungal Activity Assay (broth microtiter MIC), C. albicans; type: cell-based, Candida albicans; conditions: Candida albicans, ATCC90028, 48 h
Outline: (§1)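 MICs were scored by eye at 48 h relative to the growth control. Plates followed CLSI M27-A3, with Candida suspensions in RPMI 1640+MOPS giving a final 2.5×10^3 CFU/mL; the colonies came from Sabouraud agar grown overnight at 35 °C.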

[3] = test system: C. parapsilosis; experiment: Antifungal Activity Assay (broth microtiter MIC), C. parapsilosis; type: cell-based, Candida parapsilosis; conditions: Lodderomyces parapsilosis, ATCC22019, 48 h
Outline: as §1

[4] = test system: Botrtyis cinerea (Bc); experiment: Growth inhibition assay of fungal pathogens, Bc; type: cell-based; conditions: 48 h
Outline: (§2)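 Spores diluted in 17% V8 liquid media and incubated with compound at final 50, 10, 2 ppm or 2, 0.4, 0.08 ppm (2% DMSO). OD600 plus visual ratings at 24 and 48 hours, blank-subtracted; percent growth inhibition from 48 h readings relative to 2% DMSO control.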

[5] = test system: Diplodia maydis (Dm); experiment: Growth inhibition assay of fungal pathogens, Dm; type: cell-based; conditions: Stenocarpella maydis, 48 h
Outline: as §2

[6] = test system: Fusarium moniliforme (Fm); experiment: Growth inhibition assay of fungal pathogens, Fm; type: cell-based; conditions: for IC90: Fusarium verticillioides, 48 h, read-out: Concentration at 90% Inhibition Fm
Outline: as §2

[7] = test system: Fusarium virguliforme (Fv); experiment: Growth inhibition assay of fungal pathogens, Fv; type: cell-based; conditions: 48 h
Outline: as §2

[8] = test system: Rhizoctonia solani (Rs); experiment: Growth inhibition assay of fungal pathogens, Rs; type: cell-based; conditions: 48 h
[9] = test system: Septoria tritici (St); experiment: Growth inhibition assay of fungal pathogens, St; type: cell-based; conditions: Zymoseptoria tritici, 48 h
Outline: as §2

[10] = molecular target: fungal (fACC2) (UniProt Q00955); conditions: read-out: fACC2 (in vitro ACC2 Inhibition Assay, IC50), ADP-Glo, 5 nM ACC2, 20 μM ATP, 20 μM acetyl-CoA
Chain of fungal (fACC2) (Q00955 whole entry): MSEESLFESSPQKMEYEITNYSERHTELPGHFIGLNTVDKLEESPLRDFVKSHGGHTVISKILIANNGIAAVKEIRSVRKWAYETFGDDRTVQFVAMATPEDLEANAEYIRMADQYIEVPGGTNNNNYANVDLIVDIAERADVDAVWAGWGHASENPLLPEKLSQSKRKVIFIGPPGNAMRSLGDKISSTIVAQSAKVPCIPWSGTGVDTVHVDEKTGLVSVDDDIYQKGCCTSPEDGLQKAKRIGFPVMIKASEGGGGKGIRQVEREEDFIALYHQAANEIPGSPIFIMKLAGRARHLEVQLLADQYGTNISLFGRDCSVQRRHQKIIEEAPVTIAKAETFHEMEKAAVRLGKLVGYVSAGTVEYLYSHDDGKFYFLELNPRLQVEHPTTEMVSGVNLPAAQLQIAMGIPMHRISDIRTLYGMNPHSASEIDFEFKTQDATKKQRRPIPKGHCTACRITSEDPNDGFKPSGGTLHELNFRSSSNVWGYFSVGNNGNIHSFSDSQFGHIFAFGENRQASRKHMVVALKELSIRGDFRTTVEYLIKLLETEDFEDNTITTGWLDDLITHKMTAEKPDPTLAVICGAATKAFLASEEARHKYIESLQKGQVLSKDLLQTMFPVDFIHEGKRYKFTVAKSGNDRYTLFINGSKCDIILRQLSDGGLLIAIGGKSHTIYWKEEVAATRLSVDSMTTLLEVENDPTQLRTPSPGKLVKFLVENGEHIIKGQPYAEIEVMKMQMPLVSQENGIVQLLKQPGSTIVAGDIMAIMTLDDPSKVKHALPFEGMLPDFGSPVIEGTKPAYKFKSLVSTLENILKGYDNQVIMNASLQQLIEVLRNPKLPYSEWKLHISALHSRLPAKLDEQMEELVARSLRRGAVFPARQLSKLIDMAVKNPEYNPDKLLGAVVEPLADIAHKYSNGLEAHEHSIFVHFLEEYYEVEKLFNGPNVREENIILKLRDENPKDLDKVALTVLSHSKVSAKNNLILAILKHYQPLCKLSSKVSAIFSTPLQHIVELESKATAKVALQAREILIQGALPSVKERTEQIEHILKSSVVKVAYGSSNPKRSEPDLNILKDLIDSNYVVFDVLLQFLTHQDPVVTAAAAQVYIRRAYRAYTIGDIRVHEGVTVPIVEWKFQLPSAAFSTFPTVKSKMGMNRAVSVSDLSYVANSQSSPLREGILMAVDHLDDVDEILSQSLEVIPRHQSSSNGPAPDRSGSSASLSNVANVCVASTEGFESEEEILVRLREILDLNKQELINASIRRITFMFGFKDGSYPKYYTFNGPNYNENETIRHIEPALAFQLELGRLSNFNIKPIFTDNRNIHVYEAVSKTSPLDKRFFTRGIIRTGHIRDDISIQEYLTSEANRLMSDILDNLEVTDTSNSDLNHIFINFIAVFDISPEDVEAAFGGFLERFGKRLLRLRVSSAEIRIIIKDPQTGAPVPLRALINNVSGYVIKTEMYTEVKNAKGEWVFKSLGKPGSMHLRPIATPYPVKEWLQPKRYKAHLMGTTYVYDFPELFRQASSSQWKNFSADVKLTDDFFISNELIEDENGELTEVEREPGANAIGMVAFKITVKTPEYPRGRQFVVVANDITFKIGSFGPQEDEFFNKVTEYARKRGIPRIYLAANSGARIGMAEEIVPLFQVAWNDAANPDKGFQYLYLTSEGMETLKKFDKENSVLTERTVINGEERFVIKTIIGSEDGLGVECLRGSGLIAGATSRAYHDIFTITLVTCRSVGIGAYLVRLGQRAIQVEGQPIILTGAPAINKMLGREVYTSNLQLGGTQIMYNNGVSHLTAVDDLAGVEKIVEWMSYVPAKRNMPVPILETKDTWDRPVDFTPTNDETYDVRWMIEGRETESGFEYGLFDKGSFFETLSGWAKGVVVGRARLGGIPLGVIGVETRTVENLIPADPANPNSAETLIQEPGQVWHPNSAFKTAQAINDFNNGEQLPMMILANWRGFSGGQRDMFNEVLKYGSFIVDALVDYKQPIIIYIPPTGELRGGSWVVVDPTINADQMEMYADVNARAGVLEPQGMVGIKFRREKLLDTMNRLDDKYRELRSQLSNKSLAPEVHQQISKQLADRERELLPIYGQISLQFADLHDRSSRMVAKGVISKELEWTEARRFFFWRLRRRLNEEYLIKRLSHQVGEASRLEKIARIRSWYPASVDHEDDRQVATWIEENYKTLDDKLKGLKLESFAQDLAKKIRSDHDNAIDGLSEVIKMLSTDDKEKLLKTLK

[11] = Fusarium moniliforme, growth inhibition at 48 hours vs 2% DMSO control

Compound: COCCO[C@@H](Cn1c(=O)n(CC(=O)NC(C)C)c(=O)c2c(C)c(-n3nccn3)sc21)c1cc(F)ccc1OC [Compound I-80, (R)-2-(1-(2-(5-fluoro-2-methoxyphenyl)-2-(2-methoxy-ethoxy)ethyl)-5-methyl-2,4-dioxo-6-(2H-1,2,3-triazol-2-yl)-1,4-dihydro-thieno[2,3-d]pyrimidin-3(2H)-yl)-N-isopropylacetamide]
- IC50 ([1]; Table 2a): > 40 nM
- IC50 ([1]; Table 2b, additional results): > 40 nM
- MIC ([2]; read-out: MIC, C. albicans ATCC 90028, Table 3a, 3 replicates, MIC recorded at 48 h): 2.1 to 4 µg/mL (≈ 3.65 to 6.96 µM)
- MIC ([2]; read-out: MIC, C. albicans ATCC 90028, Table 3b (additional results), 3 replicates, MIC recorded at 48 h): > 4.01 µg/mL
- MIC ([3]; read-out: MIC, C. parapsilosis ATCC 22019, Table 3a, 3 replicates, MIC recorded at 48 h): 2.1 to 4 µg/mL (≈ 3.65 to 6.96 µM)
- MIC ([3]; read-out: MIC, C. parapsilosis ATCC 22019, Table 3b (additional results), 3 replicates, MIC recorded at 48 h): 2.01 to 4 µg/mL (≈ 3.5 to 6.96 µM)
- IC90 ([4]; read-out: Concentration at 90% Inhibition Bc, Botrtyis cinerea, growth inhibition at 48 hours vs 2% DMSO control): > 50 µg/mL
- IC90 ([4]; read-out: Concentration at 90% Inhibition Bc, Botrtyis cinerea, growth inhibition vs 2% DMSO control at 48 hours): > 50 µg/mL
- IC90 ([5]; read-out: Concentration at 90% Inhibition Dm, Diplodia maydis, growth inhibition at 48 hours vs 2% DMSO control): > 50 µg/mL
- IC90 ([5]; read-out: Concentration at 90% Inhibition Dm, Diplodia maydis, growth inhibition vs 2% DMSO control at 48 hours): > 50 µg/mL
- Concentration at 90% Inhibition Fm [6, 11]: AA (compound concentration of 0.08 ppm at 90% inhibition of fungal pathogens)
- IC90 [6]: 0.08 µg/mL (≈ 0.139 µM)
- IC90 ([7]; read-out: Concentration at 90% Inhibition Fv, Fusarium virguliforme, growth inhibition at 48 hours vs 2% DMSO control): 2 µg/mL (≈ 3.48 µM)
- IC90 ([7]; read-out: Concentration at 90% Inhibition Fv, Fusarium virguliforme, growth inhibition vs 2% DMSO control at 48 hours): 10 µg/mL (≈ 17.4 µM)
- IC90 ([8]; read-out: Concentration at 90% Inhibition Rs, Rhizoctonia solani, mycelial plugs, growth inhibition at 48 hours vs 2% DMSO control): 10 µg/mL (≈ 17.4 µM)
- IC90 ([8]; read-out: Concentration at 90% Inhibition Rs, Rhizoctonia solani, mycelial plugs, growth inhibition vs 2% DMSO control at 48 hours): > 50 µg/mL
- IC90 ([9]; read-out: Concentration at 90% Inhibition St, Septoria tritici, growth inhibition at 48 hours vs 2% DMSO control): > 50 µg/mL
- IC90 ([9]; read-out: Concentration at 90% Inhibition St, Septoria tritici, growth inhibition vs 2% DMSO control at 48 hours): > 50 µg/mL
- IC50 ([10]; Table 2a): 1 to 5 nM
- IC50 ([10]; Table 2b, additional results): 1 to 5 nM

Compound: COc1ccc(F)cc1[C@H](Cn1c(=O)n(CC(=O)N2CCCC2)c(=O)c2c(C)c(-n3nccn3)sc21)OCCO [Compound I-81, (R)-1-(2-(5-fluoro-2-methoxyphenyl)-2-(2-hydroxy-ethoxy)ethyl)-5-methyl-3-(2-oxo-2-(pyrrolidin-1-yl)ethyl)-6-(2H-1,2,3-triazol-2-yl)thieno[2,3-d]pyrimidine-2,4(1H,3H)-dione]
- IC50 ([1]; Table 2a): 5 to 10 nM
- IC50 ([1]; Table 2b, additional results): 5 to 10 nM
- MIC ([2]; Table 3a, ATCC 90028, 3 replicates, MIC recorded at 48 h, read-out: MIC, C. albicans ATCC 90028): 2.1 to 4 µg/mL (≈ 3.67 to 6.99 µM)
- MIC ([2]; Table 3b (additional results), ATCC 90028, 3 replicates, MIC recorded at 48 h, read-out: MIC, C. albicans ATCC 90028): 2.01 to 4 µg/mL (≈ 3.51 to 6.99 µM)
- MIC ([3]; Table 3a, ATCC 22019, 3 replicates, MIC recorded at 48 h, read-out: MIC, C. parapsilosis ATCC 22019): 2.1 to 4 µg/mL (≈ 3.67 to 6.99 µM)
- MIC ([3]; Table 3b (additional results), ATCC 22019, 3 replicates, MIC recorded at 48 h, read-out: MIC, C. parapsilosis ATCC 22019): 2.01 to 4 µg/mL (≈ 3.51 to 6.99 µM)
- IC90 ([4]; Botrtyis cinerea, growth inhibition at 48 hours vs 2% DMSO control, read-out: Concentration at 90% Inhibition Bc): 0.08 µg/mL (≈ 0.14 µM)
- IC90 ([4]; Botrtyis cinerea, growth inhibition vs 2% DMSO control at 48 hours, read-out: Concentration at 90% Inhibition Bc): 0.08 µg/mL (≈ 0.14 µM)
- IC90 ([5]; Diplodia maydis, growth inhibition at 48 hours vs 2% DMSO control, read-out: Concentration at 90% Inhibition Dm): 2 µg/mL (≈ 3.49 µM)
- IC90 ([5]; Diplodia maydis, growth inhibition vs 2% DMSO control at 48 hours, read-out: Concentration at 90% Inhibition Dm): 2 µg/mL (≈ 3.49 µM)
- IC90 [6, 11]: 0.08 µg/mL (≈ 0.14 µM)
- IC90 ([6]; Fusarium moniliforme, growth inhibition vs 2% DMSO control at 48 hours): 0.08 µg/mL (≈ 0.14 µM)
- IC90 ([7]; growth inhibition at 48 hours vs 2% DMSO control, read-out: Concentration at 90% Inhibition Fv): 0.4 µg/mL (≈ 0.699 µM)
- IC90 ([7]; growth inhibition vs 2% DMSO control at 48 hours, read-out: Concentration at 90% Inhibition Fv): 0.4 µg/mL (≈ 0.699 µM)
- IC90 ([8]; mycelial plugs, growth inhibition at 48 hours vs 2% DMSO control, read-out: Concentration at 90% Inhibition Rs): 0.08 µg/mL (≈ 0.14 µM)
- IC90 ([8]; mycelial plugs, growth inhibition vs 2% DMSO control at 48 hours, read-out: Concentration at 90% Inhibition Rs): 0.08 µg/mL (≈ 0.14 µM)
- IC90 ([9]; Septoria tritici, growth inhibition at 48 hours vs 2% DMSO control, read-out: Concentration at 90% Inhibition St): > 50 µg/mL
- IC90 ([9]; Septoria tritici, growth inhibition vs 2% DMSO control at 48 hours, read-out: Concentration at 90% Inhibition St): > 50 µg/mL
- IC50 ([10]; Table 2a): 1 to 5 nM
- IC50 ([10]; Table 2b, additional results): 1 to 5 nM
